Read-outs that look alike come from different tables or passages of the source.
Experiments:
ABL = ABL (Homo sapiens, UniProt P00519); experiment: Kinase profiling; assay type: biochemical; details: for ABL activity, percentage of DMSO control: 0.1 or 1 μM inhibitor, mean of triplicate; for Inhibition of ABL in profiling (in words): 1 μM
Method: Kinase inhibitor specificity profiling assays were carried out at The International Centre for Protein Kinase Profiling (http://www.kinase-screen.mrc.ac.uk/) against a panel of 140 protein kinases as described previously. Results are presented as a percentage of kinase activity in DMSO control reactions. Protein kinases were assayed in vitro with 0.1 or 1 μM of the inhibitors and the results are presented as an average of triplicate reactions±S.D. or in the form of comparative histograms.

[1] = tested on: MYPT1 Ser445 phosphorylation; experiment: MYPT1 Ser445 phosphorylation on EDTA-induced detachment, HEK-293; assay type: cell-based, human; details: HEK-293, 16 h; for Suppression of MYPT1 Ser445 phosphorylation (in words): HTH-01-015 at 10 μM
Method: HEK (human embryonic kidney)-293 and U2OS cells were cultured in DMEM (Dulbecco's modified Eagle's medium) supplemented with 10% FBS, 2 mM glutamine and 1×antibacterial/antimycotic solution. NUAK1^+/+ and NUAK1^−/− MEFs were cultured in DMEM supplemented with 10% (v/v) FBS and 2 mM glutamine, 1×antibacterial/antimycotic solution, 1% (v/v) non-essential amino acids and 1% (v/v) sodium pyruvate. HEK-293 Flp/In T-Rex cell lines were cultured in DMEM supplemented with 10% (v/v) FBS and 2 mM glutamine, 1×antibacterial/antimycotic solution, 100 μg/ml hygromycin and 15 μg/ml blasticidin. Supplementing the culture medium with 0.1 μg/ml doxycycline for 16–24 h induced protein expression in the HEK-293 Flp/In T-Rex cells. Cell counting was carried out using Invitrogen Countess following the manufacturer's protocol. A cell-detachment assay was carried out on HEK-293 cells using PBS-EDTA-based cell dissociation buffer as described previously. An inhibitor dose-dependence assay was carried out by treating the cells with various concentrations of the inhibitors as indicated in the Figure legends. The inhibitors were dissolved in DMSO and the total concentration of DMSO in the culture media never exceeded 1%. Transient transfections of HEK-293 cells were carried out using PEI [24]. Stable transfections were carried out in HEK-293 Flp/In T-Rex cells (Invitrogen) following the manufacturer's protocol. Lentivirus-mediated knock down of NUAK1 was carried out in U2OS cells using shRNA constructs as described previously. Post-treatment and/or transfection, cells were lysed in lysis buffer containing 50 mM Tris/HCl (pH 7.5), 1 mM EGTA, 1 mM EDTA, 1% Triton X-100, 50 mM NaF, 10 mM sodium 2-glycerophosphate, 5 mM sodium pyrophosphate, 1 mM sodium orthovanadate, 0.27 M sucrose, 1 mM benzamidine (added before lysis), 1 mM PMSF (added before lysis) and 0.1% 2-mercaptoethanol (added before lysis). Lysates were clarified by centrifugation at 16000 g for 15 min at 4°C and either used for further experiments or snap-frozen in liquid nitrogen and stored at −80°C. Protein estimation was carried out using the Bradford method with BSA as a standard.
Figure 5 HTH-01-015 and WZ4003 inhibit MYPT1 Ser^445 phosphorylation in vivo (A) HEK-293 cells were treated in the absence (DMSO) or presence of the indicated concentrations of WZ4003 over 16 h. Cell medium was then replaced with either normal DMEM containing no EDTA-PBS-based cell dissociation buffer (−) or EDTA-PBS-based cell dissociation buffer (+) containing the same concentration of WZ4003 that the cells were previously incubated in. Cell detachment was induced with gentle tapping of the plates followed by gentle centrifugation at 70 g for 3 min. Cells were lysed immediately after removal of the supernatant. Endogenous MYPT1 was immunoprecipitated from 0.5 mg of the cell lysates. The immunoprecipitates were immunoblotted for the detection of p-Ser^445 MYPT1 and total MYPT1. The cell lysates were subjected to immunoblotting for the detection of p-Ser^79 ACC and total ACC. Similar results were obtained in three separate experiments. (B) As in (A) except for the HTH-01-015 inhibitor was used. (C–F) As above except that HEK-293 Flp/In T-Rex cells stably expressing the indicated wild-type HA-tagged NUAK1 or drug-resistant HA-tagged NUAK1[A195T] were used. Similar results were obtained in three separate experiments for all data shown on this Figure.

NUAK2 = biological target: T1, NUAK2 (Homo sapiens, UniProt Q9H093); experiment: GST–NUAK2 Sakamototide peptide kinase assay; assay type: biochemical; details: for IC50: 200 μM Sakamototide, 100 μM [γ-32P]ATP; for Inhibition of NUAK2 (in words): results not shown
T1 construct: made in house; host or cells: HEK-293 cells, transient transfection of pEBG2T construct
T1 sequence (Q9H093 1-628): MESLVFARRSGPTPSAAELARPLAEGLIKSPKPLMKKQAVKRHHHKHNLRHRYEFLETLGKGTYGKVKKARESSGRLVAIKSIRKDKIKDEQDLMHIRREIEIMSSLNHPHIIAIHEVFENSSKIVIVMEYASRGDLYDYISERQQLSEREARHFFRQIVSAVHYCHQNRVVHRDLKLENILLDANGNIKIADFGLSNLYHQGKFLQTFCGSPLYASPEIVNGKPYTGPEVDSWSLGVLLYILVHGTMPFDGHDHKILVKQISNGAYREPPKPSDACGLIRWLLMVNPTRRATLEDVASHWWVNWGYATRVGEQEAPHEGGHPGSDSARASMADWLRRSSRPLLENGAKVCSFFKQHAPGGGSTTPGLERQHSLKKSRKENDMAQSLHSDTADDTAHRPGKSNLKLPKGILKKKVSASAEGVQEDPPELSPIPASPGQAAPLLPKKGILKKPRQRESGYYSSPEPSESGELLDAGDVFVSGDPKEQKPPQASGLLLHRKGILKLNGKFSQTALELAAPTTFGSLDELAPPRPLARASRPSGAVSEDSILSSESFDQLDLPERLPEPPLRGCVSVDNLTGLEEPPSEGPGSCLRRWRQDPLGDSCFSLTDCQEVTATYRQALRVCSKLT
Method: Active GST–NUAK1, GST–NUAK1[A195T] and GST–NUAK2 enzymes were purified using glutathione–Sepharose from HEK-293 cell lysates 36–48 h following the transient transfection of pEBG2T mammalian constructs expressing N-terminal GST-tagged NUAK1, NUAK1[A195T] or NUAK2. For peptide kinase assays, 96-well plates were used, and each reaction was performed in triplicate. Each reaction was set up in a total volume of 50 μl containing 100 ng of NUAK1 (wild-type or A195T mutant) or NUAK2 in 50 mM Tris/HCl (pH 7.5), 0.1 mM EGTA, 10 mM magnesium acetate, 200 μM Sakamototide, 0.1 mM [γ-^32P]ATP (450–500 c.p.m./pmol) and the indicated concentrations of inhibitors dissolved in DMSO. After incubation for 30 min at 30°C, reactions were terminated by adding 25 mM (final) EDTA to chelate the magnesium. Then, 40 μl of the reaction mix was spotted on to P81 paper and immersed in 50 mM orthophosphoric acid. Samples were washed three times in 50 mM orthophosphoric acid followed by a single acetone rinse and air drying. The incorporation of [γ-^32P]ATP into Sakamototide was quantified by Cerenkov counting. The values were expressed as a percentage of the DMSO control. IC50 curves were developed and IC50 values were calculated using GraphPad Prism software.

ABL, sequence (P00519 whole entry): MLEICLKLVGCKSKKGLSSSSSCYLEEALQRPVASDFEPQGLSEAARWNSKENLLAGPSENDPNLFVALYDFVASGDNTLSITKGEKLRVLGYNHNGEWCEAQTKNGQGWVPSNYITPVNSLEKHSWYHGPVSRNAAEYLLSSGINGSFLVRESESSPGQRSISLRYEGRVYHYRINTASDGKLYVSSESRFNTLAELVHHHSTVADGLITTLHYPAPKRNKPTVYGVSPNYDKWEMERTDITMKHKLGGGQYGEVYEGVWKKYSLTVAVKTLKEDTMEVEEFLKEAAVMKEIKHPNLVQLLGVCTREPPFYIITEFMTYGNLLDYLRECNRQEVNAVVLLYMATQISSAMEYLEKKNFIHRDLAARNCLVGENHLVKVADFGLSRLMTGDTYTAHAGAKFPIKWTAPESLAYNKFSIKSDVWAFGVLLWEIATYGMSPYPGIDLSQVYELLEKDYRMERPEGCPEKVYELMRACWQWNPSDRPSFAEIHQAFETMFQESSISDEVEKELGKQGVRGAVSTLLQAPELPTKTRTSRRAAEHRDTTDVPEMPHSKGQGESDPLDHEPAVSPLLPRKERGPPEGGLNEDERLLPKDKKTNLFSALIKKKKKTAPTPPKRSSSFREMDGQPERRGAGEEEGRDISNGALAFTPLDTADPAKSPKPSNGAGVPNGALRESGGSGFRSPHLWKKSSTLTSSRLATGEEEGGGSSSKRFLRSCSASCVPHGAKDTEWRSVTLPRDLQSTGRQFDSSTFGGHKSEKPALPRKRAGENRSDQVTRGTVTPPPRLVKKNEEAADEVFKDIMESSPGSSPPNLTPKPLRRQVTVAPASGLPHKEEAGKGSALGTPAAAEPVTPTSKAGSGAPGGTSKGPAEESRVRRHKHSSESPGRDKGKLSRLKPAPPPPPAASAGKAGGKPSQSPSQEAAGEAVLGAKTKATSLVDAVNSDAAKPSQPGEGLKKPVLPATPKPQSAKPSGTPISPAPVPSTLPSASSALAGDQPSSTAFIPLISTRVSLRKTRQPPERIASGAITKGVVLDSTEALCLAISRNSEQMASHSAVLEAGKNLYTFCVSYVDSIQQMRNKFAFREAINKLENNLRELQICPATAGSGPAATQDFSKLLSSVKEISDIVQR

Row | SMILES | ABL activity, percentage of DMSO control (ABL) [percentage] | Inhibitor concentration for maximal suppression of MYPT1 Ser445 phosphorylation [1] [µM] | Suppression of MYPT1 Ser445 phosphorylation (in words) [1] | IC50 (NUAK2; bound given in text, read-out: IC50 for NUAK2) [nM] | Higher potency for NUAK1 than NUAK2 (NUAK2; NUAK1 versus NUAK2) [fold] | IC50 (NUAK2; read-out: IC50 for NUAK2 (wild-type GST–NUAK2)) [nM] | Inhibition of ABL in profiling (in words) (ABL) | Inhibition of NUAK2 (in words) (NUAK2)
1 | Cc1nc(Nc2cnn(C3CCNCC3)c2)nc2c1N(C)C(=O)c1cc3ccccc3cc1N2C [HTH-01-015] | 110 | 3 to 10 | only led to a partial inhibition | > 10000 | > 100 | – | – | –
2 | CCC(=O)Nc1cccc(Oc2nc(Nc3ccc(N4CCN(C)CC4)cc3OC)ncc2Cl)c1 [WZ4003] | 104 | 3 to 10 | suppressed MYPT1 phosphorylation in a dose-dependent manner | – | – | 100 | – | –
3 | CN1C(=O)c2ccccc2N(C)c2nc(Nc3cnn(C4CCNCC4)c3)ncc21 [XMD-17-51] | – | – | only partially suppressed | – | – | – | inhibited | Neither compound significantly inhibited
4 | CN1C(=O)c2cc3ccccc3cc2N(C)c2nc(Nc3cnn(C4CCNCC4)c3)ncc21 [XMD-18-42] | – | – | only partially suppressed | – | – | – | inhibited | Neither compound significantly inhibited

Reference: paper PMC3969223, “Characterization of WZ4003 and HTH-01-015 as selective inhibitors of the LKB1-tumour-suppressor-activated NUAK kinases” (Biochemical Journal, 2013)
